Data taken from article PMC11606603, “The membrane domains of mammalian adenylyl cyclases are lipid receptors” (eLife, 2024).
“And” between values parts separate entries of the source, which are not always exact repeats. Equal entries are not always repeated.

Legend:
[1] = target: T1, HEK293 cells permanently transfected with mAC3 (Homo sapiens, UniProt O60266); experiment: cAMP accumulation assay, isoproterenol-stimulated HEK-mAC3 cells; assay type: cell-based; conditions: in words
T1 construct: Human mAC genes were from GenScript and fitted with a C-terminal FLAG-tag; FLAG (C); expressed in transfected cells; host or cells: HEK293, permanently transfected
T1 sequence (O60266 1-1144): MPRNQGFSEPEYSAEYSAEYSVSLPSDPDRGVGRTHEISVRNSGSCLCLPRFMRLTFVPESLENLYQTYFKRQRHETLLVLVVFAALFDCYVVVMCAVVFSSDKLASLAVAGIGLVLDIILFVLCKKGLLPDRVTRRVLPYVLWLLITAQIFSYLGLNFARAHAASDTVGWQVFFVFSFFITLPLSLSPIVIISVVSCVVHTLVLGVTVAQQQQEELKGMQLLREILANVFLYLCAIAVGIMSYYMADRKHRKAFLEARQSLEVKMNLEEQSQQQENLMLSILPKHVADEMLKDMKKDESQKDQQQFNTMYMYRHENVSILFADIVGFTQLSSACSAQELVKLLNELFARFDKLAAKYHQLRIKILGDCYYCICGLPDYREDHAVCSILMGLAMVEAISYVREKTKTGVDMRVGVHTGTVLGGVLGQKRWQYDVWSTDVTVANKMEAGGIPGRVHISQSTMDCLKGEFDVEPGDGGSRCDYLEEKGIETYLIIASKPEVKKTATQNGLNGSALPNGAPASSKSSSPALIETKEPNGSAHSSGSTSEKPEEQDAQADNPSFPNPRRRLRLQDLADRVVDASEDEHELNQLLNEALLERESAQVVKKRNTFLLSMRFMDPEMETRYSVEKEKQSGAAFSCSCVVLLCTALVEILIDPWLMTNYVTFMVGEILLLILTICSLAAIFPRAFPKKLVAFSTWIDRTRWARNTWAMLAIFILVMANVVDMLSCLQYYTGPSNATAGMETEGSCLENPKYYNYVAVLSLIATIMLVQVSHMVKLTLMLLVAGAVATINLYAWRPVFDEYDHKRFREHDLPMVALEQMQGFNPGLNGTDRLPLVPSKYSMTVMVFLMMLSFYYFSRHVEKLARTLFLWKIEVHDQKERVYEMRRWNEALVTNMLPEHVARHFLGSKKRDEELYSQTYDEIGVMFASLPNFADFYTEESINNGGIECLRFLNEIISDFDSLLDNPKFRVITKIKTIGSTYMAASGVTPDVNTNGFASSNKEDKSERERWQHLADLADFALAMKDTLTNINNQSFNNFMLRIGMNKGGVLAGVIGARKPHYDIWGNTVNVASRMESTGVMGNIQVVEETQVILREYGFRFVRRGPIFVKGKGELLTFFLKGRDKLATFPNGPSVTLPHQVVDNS
Description: hAC sequences were from NCBI were: ADCY1: NM_021116.3; ADCY2: NM_020546.2; ADCY3: NM_004036.4; ADCY4: NM_001198568.2; ADCY5: NM_183357.2; ADCY6: NM_015270.4; ADCY7: NM_001114.4; ADCY8: NM_001115.2; ADCY9: NM_001116.3. Human mAC genes were from GenScript and fitted with a C-terminal FLAG-tag. […] The gene was synthesized by GenScript. HEK293 cells were maintained in Dulbeccos Modified Eagle Medium (DMEM) with 10% fetal bovine serum at 37°C and 5% CO2. Transfection with AC plasmids was with PolyJet (SignaGen, Frederick, MD, USA). Permanent cell lines were generated by selection for 7 days with 600 µg/ml G418 and maintained with 300 µg/ml For membrane preparation, cells were tyrpsinized, collected by centrifugation (3000 × g, 5 min) and lysed and homogenized in 20 mM HEPES, pH 7.5, 1 mM Ethylenediaminetetraacetic acid (EDTA), 2 mM MgCl2, 1 mM Dithiothreitol (DTT), one tablet of cOmplete, EDTA-free (per 50 ml) and 250 mM sucrose by 20 strokes in a potter homogenizer on ice. Debris was removed (5 min at 1000 × g, 0°C), membranes were collected at 100,000 × g, 60 min at 0°C, suspended and stored at −80°C in 20 mM MOPS, pH 7.5, 0.5 mM EDTA, 2 mM MgCl2. […] Three cerebral cortices were dissected and homogenized in 4.5 ml cold 48 mM Tris–HCl, pH 7.4, 12 mM MgC1_2, and 0.1 mM Ethylene glycol-bis(β-aminoethyl ether)-N,N,N′,N′-tetraacetic acid (EGTA) with a Polytron hand disperser (Kinematica AG, Switzerland). […] The pellet was washed once with 5 ml 1 mM KHCO3. The final suspension in 2 ml 1 mM KHCO3 was stored in aliquots at −80°C.
HEK293 cells stably expressing mAC isoforms 3, 5, and mAC5(membr)_mAC3(cat) were plated at 2500–10,000 cells/well into 384-well plates. […] Addition of Cisbio HTRF detection reagents stopped the reaction and cAMP levels were determined.

mAC3 = target: T2, mAC3 (Homo sapiens, UniProt O60266); experiment: AC assay, Gsα-stimulated mAC3 in membranes from transfected HEK293 cells; assay type: biochemical; conditions: for activity [%] (100% = 300nM Gsα stimulation): mAC3
T2 construct: Human mAC genes were from GenScript and fitted with a C-terminal FLAG-tag; FLAG (C); made in house; host or cells: HEK293, permanently transfected; membrane preparation
In short: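 EC50 and IC50 values come from cAMP production, read with a Cisbio cAMP kit and converted via a standard curve. Assay mix held 1 mM ATP, 2 mM MgCl2, 3 mM creatine phosphate and 60 μg/ml creatine kinase in 50 mM MOPS pH 7.5, using transfected HEK293 membranes.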

mAC2 = target: T3, mAC2 (Homo sapiens, UniProt Q08462); experiment: AC assay, Gsα-stimulated mAC2 in membranes from transfected HEK293 cells; assay type: biochemical; conditions: Figure 5-figure supplement 1 left, 20 µM
T3 construct: Human mAC genes were from GenScript and fitted with a C-terminal FLAG-tag; FLAG (C); made in house; host or cells: HEK293, permanently transfected; membrane preparation
In short: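 cAMP detected with a Cisbio kit, calibrated by a cAMP standard curve each run. Reaction: 1 mM ATP, 2 mM MgCl2, 3 mM creatine phosphate, 60 μg/ml creatine kinase, 50 mM MOPS pH 7.5. Enzyme source: membranes of stably transfected HEK293 (G418-selected) carrying FLAG-tagged human AC.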

T3 sequence (Q08462 whole entry): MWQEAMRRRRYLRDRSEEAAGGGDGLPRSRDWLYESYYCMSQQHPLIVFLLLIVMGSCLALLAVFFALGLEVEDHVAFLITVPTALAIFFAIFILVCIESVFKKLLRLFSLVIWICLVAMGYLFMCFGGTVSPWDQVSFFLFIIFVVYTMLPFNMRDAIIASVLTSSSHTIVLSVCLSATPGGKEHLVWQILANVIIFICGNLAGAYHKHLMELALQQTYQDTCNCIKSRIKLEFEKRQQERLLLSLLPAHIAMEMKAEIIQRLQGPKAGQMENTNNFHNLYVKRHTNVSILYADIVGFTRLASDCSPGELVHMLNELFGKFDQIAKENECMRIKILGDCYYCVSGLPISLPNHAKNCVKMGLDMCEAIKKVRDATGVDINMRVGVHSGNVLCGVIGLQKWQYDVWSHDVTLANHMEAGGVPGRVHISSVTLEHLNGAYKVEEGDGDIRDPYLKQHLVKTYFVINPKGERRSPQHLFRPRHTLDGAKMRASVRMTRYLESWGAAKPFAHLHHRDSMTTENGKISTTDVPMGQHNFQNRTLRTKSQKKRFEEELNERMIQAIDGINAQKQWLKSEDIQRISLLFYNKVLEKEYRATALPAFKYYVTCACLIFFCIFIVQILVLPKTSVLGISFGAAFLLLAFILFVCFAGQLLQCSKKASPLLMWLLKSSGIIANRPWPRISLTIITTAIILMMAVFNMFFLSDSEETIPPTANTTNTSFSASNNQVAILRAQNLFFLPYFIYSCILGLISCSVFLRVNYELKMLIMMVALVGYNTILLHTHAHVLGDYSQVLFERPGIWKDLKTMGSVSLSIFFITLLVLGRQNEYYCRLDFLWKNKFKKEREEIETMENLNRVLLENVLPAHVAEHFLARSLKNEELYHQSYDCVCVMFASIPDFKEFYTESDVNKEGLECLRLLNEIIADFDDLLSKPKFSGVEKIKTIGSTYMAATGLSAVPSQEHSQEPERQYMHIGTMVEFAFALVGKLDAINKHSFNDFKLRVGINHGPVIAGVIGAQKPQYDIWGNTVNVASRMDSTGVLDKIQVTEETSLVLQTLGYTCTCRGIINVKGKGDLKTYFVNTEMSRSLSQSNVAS
T3 sequence (P63092 2-394 Q227L partner): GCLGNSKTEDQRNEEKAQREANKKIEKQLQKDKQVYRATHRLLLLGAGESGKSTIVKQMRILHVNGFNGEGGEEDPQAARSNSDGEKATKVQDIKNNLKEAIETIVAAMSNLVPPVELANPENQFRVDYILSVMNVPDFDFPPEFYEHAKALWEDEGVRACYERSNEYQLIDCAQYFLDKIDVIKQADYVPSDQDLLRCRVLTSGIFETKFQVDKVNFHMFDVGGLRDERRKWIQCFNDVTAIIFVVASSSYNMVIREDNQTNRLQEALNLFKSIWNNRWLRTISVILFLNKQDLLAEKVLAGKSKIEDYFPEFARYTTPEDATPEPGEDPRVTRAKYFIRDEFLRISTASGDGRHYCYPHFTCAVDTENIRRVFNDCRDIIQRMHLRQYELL
T2 sequence (P63092 whole entry Q227L partner, one chain of several): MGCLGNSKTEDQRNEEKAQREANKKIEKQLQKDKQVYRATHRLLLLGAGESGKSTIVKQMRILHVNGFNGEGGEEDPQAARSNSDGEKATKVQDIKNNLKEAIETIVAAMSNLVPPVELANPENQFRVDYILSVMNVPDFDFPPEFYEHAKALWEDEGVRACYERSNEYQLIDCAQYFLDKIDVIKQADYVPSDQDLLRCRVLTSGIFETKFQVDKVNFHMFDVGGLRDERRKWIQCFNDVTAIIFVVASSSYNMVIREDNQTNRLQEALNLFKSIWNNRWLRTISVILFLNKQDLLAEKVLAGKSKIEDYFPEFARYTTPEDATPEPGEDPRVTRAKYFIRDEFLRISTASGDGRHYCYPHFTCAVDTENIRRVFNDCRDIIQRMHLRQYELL

CCCCC/C=C\C/C=C\C/C=C\C/C=C\CCCC(=O)NCCO [Anandamide, arachidonoylethanolamide]
Effect on isoproterenol-stimulated cAMP formation in HEK-mAC3 [1]: no effect
activity [%] (100% = 300nM Gsα stimulation) (mAC3; 100µM Anandamide concentration, Figure 9 D): 165%
activity [%] (100% = 300nM Gsα stimulation) (mAC3; Anandamide 0.1 µM): 100%
activity [%] (100% = 300nM Gsα stimulation) (mAC3; Anandamide 1 µM): 87% and 101% and 117% and 100% and 94% and 127% and 77%
activity [%] (100% = 300nM Gsα stimulation) (mAC3; Anandamide 10 µM): 105% and 80% and 130% and 120% and 88% and 111% and 112% and 137%
activity [%] (100% = 300nM Gsα stimulation) (mAC3; Anandamide 30 µM): 96% and 65% and 85% and 72% and 94% and 68% and 100% and 101%

CCCCC/C=C\C/C=C\C/C=C\C/C=C\CCCC(=O)O [Arachidonic acid, Arachidonic ((5Z,8Z,11Z,14Z)-eicosatetraenoic) acid]
mAC2 activity [%] (100% = 300nM Gsα stimulation); 20µM fatty acid concentration (mAC2): 133% and 137% and 152% and 99% and 147%
mAC3 activity [%] (100% = 300nM Gsα stimulation) (mAC3; fatty acid 20 µM, individual experiments): 115% and 168% and 182% and 127%
